Point of comparison: `COC1=C(OC)C(=O)C(CCCCCCCCCCOC(C)=O)=C(C)C1=O`, melting point 38 °C. Against it:
- O=C1C(=O)N(CCN2CCN(C(c3ccccc3)c3ccccc3)CC2)c2ccccc21 — higher, 145 to 148 °C
- C=CCNC(=O)Cc1c[nH]c2ccc(CCS(=O)(=O)NC)cc12 — higher, 123 to 125 °C
- Cc1cc(C)c2c(=O)c([N+](=O)[O-])coc2c1 — higher, 120 to 125 °C
- COc1ccc(C2=NN(C3CCN(S(=O)(=O)c4ccccc4F)CC3)C(=O)CC2)cc1OC — higher, 198 to 199 °C
- Cc1cc(C(F)(F)F)c(-c2ccc(C[C@H](NC(=O)c3c(Cl)cccc3Cl)C(=O)O)cc2)c(=O)n1C — higher, 238 to 240 °C
- CC(=O)NC[C@H]1CN(c2ccc(N3CCC4(CC3)C[C@@H]4C#N)c(F)c2)C(=O)O1 — higher, 156 °C
- COC(=O)[C@H]1[C@H](NC(C)=O)C(=O)O[C@@H]1C — higher, 105 to 106 °C
- CC(=O)c1cnc2c(c1)[C@@H](NC(=O)c1ccccc1Cl)[C@H](O)C(C)(C)O2 (relative stereo) — higher, 243 to 244 °C
- CC1(C)Nc2cc(Cl)ccc2NC1=O — higher, 166 to 170 °C
- NC(=O)c1cccc2c1C1(COc3cc4c(cc31)OCCO4)CN2Cc1ccccn1 (configuration not stated) — higher, 214 to 215 °C
- O=c1c(-c2cccc(F)c2)coc2cc(O)c(O)cc12 — higher, 277 °C
- Cc1ccc(S(=O)(=O)N2CCCC2c2cccc(C)c2)cc1 (racemic) — higher, 79 °C
- Cc1nn(-c2cc(OC(F)F)n(C)n2)c(-c2ccc(Cl)cc2)c1CC(=O)O — higher, 112 °C
- CC(=O)NC1CCN(c2cccc(Br)n2)CC1 — higher, 158 to 160 °C
- CCc1nc2c(N)nc3ccccc3c2n1CCCCNC(=O)C1CCCCC1 — higher, 202 °C
- OCc1cc2c3ccccc3n(Cc3ccccc3)c2s1 — higher, 81 to 82 °C
- COc1ccccc1-n1c(=O)[nH]c2c(C(N)=O)nc(N[C@H]3CC[C@H](O)CC3)nc21 — higher, 165 to 167 °C
- COc1ccc(NC(=O)Nc2cccc(C(F)(F)F)c2)c(O)n1 — higher, 223 to 224 °C
- CCCCCCCCc1ccc(CCC(CCOC(C)=O)(CCOC(C)=O)NC(C)=O)cc1 — higher, 57 to 59 °C
- CN1CCC(OC(c2ccccc2)c2nc3cccc(O)c3[nH]2)CC1 (configuration not stated) — higher, 170 °C
- CCOC(=O)c1ncn2c1Cn1ccnc1-c1sccc1-2 — higher, 203 to 204 °C
- CCC(CC)/C(N)=C(\C)C#N — higher, 150 °C
- OCC1CCc2c([nH]c3ccc(Cl)cc23)C1 (configuration not stated) — higher, 168 to 169 °C
- N#Cc1cc(C(=O)NNC(=O)c2occc2-c2cccc(OCc3ccccc3)c2)ccc1O — higher, 190 to 195 °C
- COc1ccc(N2CCN(c3c(C)c(C)c4c(c3C)C(OCc3ccccn3)C(C)(C)O4)CC2)cc1 (configuration not stated) — higher, 120 to 121 °C
- CCN(CC)C(=O)c1ccc(C(F)(F)F)cc1-c1ccc(OC)c(OC)c1 — higher, 108 to 110 °C
- O=C(Nc1ccc(C(F)(F)F)cc1)N1CCC2Cc3ccccc3C2=N1 (configuration not stated) — higher, 122 to 124 °C
- CCc1c(OC)cc(C)c(C=CC(C)=CC=CC(C)=CC(=O)O)c1C — higher, 197 to 198 °C
- CCC1CC(=Cc2ccccc2Cl)C(=O)O1 (configuration not stated) — not separable, 38 to 39 °C
- COc1ccc(Cl)c(S(=O)(=O)NC(=O)c2cn3cc(C(F)(F)F)cc(Cl)c3n2)c1 — higher, 211 to 212 °C
- Cc1ccc(-c2ccc(C(=O)Nc3ccc4nc(CN5C(C)(C)CCCC5(C)C)ccc4c3)cn2)cc1 — higher, 246 to 247 °C
- CS(=O)(=O)c1ccc(-c2nc(C(F)(F)F)[nH]c2-c2ccc3ccccc3c2)cc1 — higher, 228 to 230 °C
- CCCC[C@H](NC(=O)[C@H](CC(C)C)NC(=O)c1ccccc1F)C(=O)CSCc1ccco1 — higher, 102 to 103 °C
- CCOc1c(C(N)=O)oc2c3ccccc3n(-c3ccccc3)c12 — higher, 187 to 188 °C
- NC(=S)NN=Cc1c2ccccc2c(C=NNC(N)=S)c2ccccc12 — higher, 275 to 277 °C
- COc1cc(N)c2nccc(C=Cc3cccc(C(F)(F)F)c3)c2c1 — higher, 124 to 126 °C
- BrCc1ccccc1CCc1ccc(Br)cc1 — higher, 63 to 75 °C
- CC(C)(C)OC(=O)N1CCC(c2nc(-c3ccncc3)c(-c3ccc(F)cc3)[nH]2)CC1 — higher, 157 to 160 °C
- CN(C)CCNC(=O)N1CCN(c2ccc(F)cc2)CC1 — higher, 99 to 101 °C
- OC(COc1cccc2c1SCCC2)CN1CCC(c2ccccc2)CC1 (configuration not stated) — higher, 104 °C
- COc1ccc(C=CC(=O)c2ccccc2O)cc1 — higher, 81 to 83 °C
- CCOc1ccc(-c2cc(C3CCCCC3)nc(C3CCCCC3)c2)cc1 — higher, 106 °C
- O=C(O)c1c([N+](=O)[O-])ccc2c1OCO2 — higher, 166 to 173 °C
- CCN(CC)c1ccc2nc3c4ccccc4c(=Nc4cc(C)nc5ccccc45)cc-3oc2c1 — higher, 229 to 230 °C
- N#Cc1ccc(CN2C(=O)C3(COc4cc5c(cc43)CCO5)c3ccccc32)cc1 (configuration not stated) — higher, 69 to 71 °C
- CCC(=O)Nc1ccc2c(Nc3cccc(Br)c3)ncnc2c1 — higher, 282 to 283 °C
- CCOC(=O)c1ccc2ccccc2c1 — lower, 35 to 36.5 °C
- CCCCCCC1CCC2C(CCC3CC(=O)CCC32)C1 (configuration not stated) — higher, 49 °C
- CSC(=NC(=O)OC(C)(C)C)NNC(=O)NC(=O)OCc1ccccc1 — higher, 120 to 123 °C
- CC(C)(C)OC(=O)N1CCC2(CC1)C(=O)N(CC(=O)O)CN2CC1CCCCC1 — higher, 148 to 149 °C
- OCC1OC(n2c(Cl)nc3cc(Br)c(Cl)cc32)C(O)C1O (configuration not stated) — higher, 140 to 142 °C
- CCC1COc2ccccc2C(=O)C1=O (configuration not stated) — higher, 63 to 66 °C
- Cc1noc(=O)n1C/C(F)=C\CCI — higher, 58.1 to 58.6 °C
- CC(=O)Nc1nc(CN2CCN(C(c3ccccc3)c3ccccc3)CC2)c(Cl)s1 — higher, 227 to 230 °C
- COC(=O)CCC(C#N)(CCC(=O)OC)c1ccc(OC)c(OC)c1 — higher, 72 to 73 °C
- O=C1c2cc3ccc4c(c3c(-c3ccc5c(c3)OCO5)c2CN1CCCO)OCO4 — higher, 213 to 215 °C
- O=C(c1cccs1)c1cnn2c(-c3cccc(-c4ccn(Cc5ccccn5)n4)c3)ccnc12 — higher, 66 °C
- CC1(C)Oc2ccc(C(F)(F)F)cc2[C@@H](NC(=O)Nc2ccccc2)[C@@H]1O (relative stereo) — higher, 174 to 175 °C
- CCOC(=O)C=Cc1ccc(C(=O)Nc2ccc3c(c2)C(C)(C)CCC3(C)C)cc1 — higher, 166 °C
- N#Cc1ccc(CCC(O)C2CC2)cc1 (configuration not stated) — higher, 70 to 71 °C
- CNCC[C@H](O)c1cccs1 — higher, 68 to 70 °C
- COc1ccccc1C1CC=NN1C(=O)c1cccnc1 (configuration not stated) — higher, 93 to 95 °C
- C=C(C)C(=O)NCC(=O)NCC(=O)O — higher, 200 to 201 °C
- O=C(O)c1cccc2ccc3c4ccccc4[nH]c3c12 — higher, 343 °C
- Cc1ncccc1COc1ccc(Cn2cc(CCC(=O)O)c(-c3ccccc3)c2)cc1 — higher, 158 to 159 °C
- Cc1nc(-c2ccc3ccc(Cn4c(C(C)C)nc5cc[nH]c(=O)c54)cc3c2)no1 — higher, 214 to 215 °C
- O=C(OCC1CC1)c1ncn2c1[C@@H]1CCCN1C(=O)c1cc(F)ccc1-2 — higher, 140 to 142 °C
- C#CCOCC(CC)(OC)c1cccc(OCc2ccc3ccccc3c2)c1 (configuration not stated) — higher, 54 °C
- Cc1ccc(C(=O)C(=O)c2ccncc2)cc1 — higher, 65 °C
- Cc1c(C)c(N2CCN(c3ccc(Cl)cc3)CC2)c(C)c2c1OC(C)(C)C2 — higher, 226 to 229 °C
- CCC(C)Nc1nc(-c2cc(OC)c(OC)c(OC)c2)nc2sc(C#N)c(C)c12 (configuration not stated) — higher, 91 to 93 °C
- O=C(Nc1ccccc1)C1=C(Nc2ccccc2)COC1=O — higher, 175 to 176 °C
- O=C1N(Cc2ccco2)Cc2cnc(Nc3ccccc3)nc2N1c1cccc(CCO)c1 — higher, 195 °C
- COc1cc(C(C)=O)ccc1OCCCCBr — higher, 52 to 54 °C
- CCc1cnc(CSc2cnc(N)s2)o1 — higher, 119 to 120 °C
- COc1ccc(C=Cc2c(Cl)cncc2Cl)c2c1OCC2C (configuration not stated) — higher, 117 to 118 °C
- CCCN(CCC)Cc1csc(-c2ncn3c2CN(C)C(=O)c2c(Cl)cccc2-3)n1 — higher, 121 to 123 °C
- O=Cc1c2n(c3ccncc13)CCC2 — higher, 150 to 151 °C
- COC1c2ccccc2CSc2ccc(C#N)cc21 (configuration not stated) — higher, 117 to 118 °C
- CN(Cc1ccc(NC(=O)C2=Cc3cc(-c4ccc5c(c4)CCO5)ccc3S(=O)(=O)CC2)cc1)C1CCOCC1 — higher, 214 to 216 °C
- COc1ccc2c(c1)CCC1C2C(O)CC2(C)C(O)CCC12 (configuration not stated) — higher, 161 to 162 °C
- Cc1nc(-c2ccc(F)cc2)c(-c2ccc(S(C)(=O)=O)cc2)s1 — higher, 229 to 233 °C
- CC(C)n1nc(-c2nc(C(N)=O)c(N)nc2-c2cccs2)ccc1=O — higher, 238 to 240 °C
- COc1cc(CCCC(=O)O)ccc1C — higher, 69 to 70 °C
- Cc1ccc(NC(=O)N2CCC(=C(F)c3cccc(Oc4ccc(C(F)(F)F)cn4)c3)CC2)cn1 — higher, 158 to 160 °C
- Cc1nc2c(-c3ccc(N4CCN(C)CC4)cc3)cnn2c(N)c1-c1cccc(Cl)c1 — higher, 113 to 115 °C
- Cc1cc(OCc2cnc(-c3ccc(C(F)(F)F)cc3)cc2C(F)(F)F)ccc1OC(C)(C)C(=O)O — higher, 148 to 149 °C
- O=C(O)c1c[nH]c(Sc2cc(Cl)cc(Cl)c2)c1 — higher, 169 to 172 °C
- COC(=O)c1ccc(C=C(CBr)C(=O)OC(C)(C)C)cc1 — higher, 78 °C
- CCN1CCc2ccc(C(=O)CCC(=O)N3CCC(c4ccc(Cl)cc4)CC3)cc2CC1 — higher, 156 to 157 °C
- COc1cc(Cn2cnc3c(-c4ccco4)ncnc32)cc(OC)c1OC — higher, 195 to 196 °C
- O=C(c1ccccc1)n1c2cc(O)c(O)cc2c2cc(O)c(O)cc21 — higher, 287 to 292 °C
- CCCCCCCCCCCCCCCC(CC)C1OC(=O)C(O)=C1O (configuration not stated) — higher, 114 to 117 °C
- COC(=O)NNc1cc(Cl)c(C)c2c1OC(C)C2 (configuration not stated) — higher, 112 to 114 °C
- ClC1=Nc2ccccc2Cn2cccc21 — higher, 102 to 104 °C
- COc1ccc(NC(C)c2ccccc2)cc1 (configuration not stated) — higher, 64 °C
- CCOC(=O)c1c(Cn2cncn2)nc2sc(C)c(C)c2c1-c1ccc2c(c1)OCO2 — higher, 109 to 110 °C
- CSc1nc(OCC(F)(F)F)nc2sc(C)cc12 — higher, 97 °C
- O=C(Oc1ccccc1)c1cccc([N+](=O)[O-])c1Cl — higher, 46 to 48 °C
- O=C1CN(c2ccc(F)cc2)CCN1 — higher, 118 to 120 °C
- Cc1scc(C2=NOCCO2)c1S(=O)(=O)NC(=O)n1nc(OC(C)C)n(C)c1=O — higher, 199 °C

From a melting point compilation (Tetko et al.; mined from patent text by program, amines drawn as free bases though some values may be those of a salt)
